Like-named read-outs stand apart in the source and are kept apart here. Marks after values point to notes of the source that are not given here. Starred links: 1 amine or outer side, 2 acyl side, 3 side chain; linkers in the order of their positions; H or OH if unused. Non-standard residues stand in square brackets, D forms with d. Residues, ends and D or L forms follow the SMILES beside them. Groups on a side chain read outwards from the residue. *: point of attachment. C20 diacid = O=C(O)CCCCCCCCCCCCCCCCCCC(=O)*; γGlu = O=C(O)[C@H](CCC(=O)[*:2])N[*:1]; NMeI = CC[C@H](C)[C@H](NC)C(=O)O; Nle = CCCC[C@H](N)C(=O)O; AEEA = NCCOCCOCC(=O)O; Aib = CC(C)(N)C(=O)O
Legend:
[1] = PK in rats; type: in vivo; set-up: T½ / MRT: unit not given here; settings: Rat
Protocol: Lean male Sprague Dawley rats (RJHan:SD) were obtained from JanVier (JanVier Labs, France) at 7 weeks of age. The animals were pair housed until randomization under a 12/12 h dark-light cycle, light off at 3 PM. Room temperature was controlled to 22°C ± 1°C, with 60 % ± 20% humidity.
Animals had ad libitum access to regular rodent chow (Altromin 1324, Brogaarden, Denmark) and tap water.
After 2 weeks of acclimatization, the animals were single housed and randomized into treatment groups (n = 3 per group) based on body weight on study day -3. On study day 1, animals were dosed 50 nmol/kg IV and SC in combination of two peptides. Plasma samples were collected for PK analysis at times 0.17, 1, 3, 6, 24, 30, 48, 72 and 96 hours post dosing. Plasma samples were analyzed using LC-MSMS and PK parameters were estimated by Non-Compartmental Analysis (NCA).

[2] = pH 7.5
[3] = Effect on acute food intake in mice; type: in vivo; settings: single subcutaneous dose
Protocol: Male NMRI mice were obtained from JanVier (JanVier Labs, France) at 5 weeks of age. The animals were group-housed 4 mice pr. cage under a 12/12 h dark-light cycle, light off at 1 PM. Room temperature was controlled to 22°C ± 1°C, with 60 % ± 20% humidity. Animals had ad libitum access to regular rodent chow (Altromin 1324, Brogaarden, Denmark) and tap water.
Animals were transferred 5-7 days before the start of the study to a real-time food intake monitoring system, HM-2 system (MBRose, Denmark) to allow acclimatization to experimental conditions. As the animals were uniquely identified with microchips, each individual animal was identified by its microchip upon entry and exit from the food channel. Randomization of the mice for each study group (n=7-8) was based on body weight measured the day before the start of the study. A vehicle-treated group was included in each experiment. Six hours before the start of the dark phase, animals were fasted. One hour before the dark phase, animals were dosed once subcutaneously with test peptide. Food intake was reported hourly for a period of 72 hours. The percentage of food intake reduction was normalized to average food intake from the vehicle group. Statistical significance was evaluated using One-way analysis of variance with Dunnett's multiple comparison test. P < 0.05 was considered statistically significant.
Selected compounds were tested according to the general procedure on acute food intake in mice to determine the effect of a single subcutaneous dose on food intake in mice over 3 days.

[4] = molecular target: T1, hCRHR2 (Homo sapiens, UniProt Q13324); assay: HTRF cAMP assay, determination of hCRHR2 potency (peptide libraries 5 conc., purified peptides 11 conc.); type: cell-based
T1 sequence (Q13324 1-411): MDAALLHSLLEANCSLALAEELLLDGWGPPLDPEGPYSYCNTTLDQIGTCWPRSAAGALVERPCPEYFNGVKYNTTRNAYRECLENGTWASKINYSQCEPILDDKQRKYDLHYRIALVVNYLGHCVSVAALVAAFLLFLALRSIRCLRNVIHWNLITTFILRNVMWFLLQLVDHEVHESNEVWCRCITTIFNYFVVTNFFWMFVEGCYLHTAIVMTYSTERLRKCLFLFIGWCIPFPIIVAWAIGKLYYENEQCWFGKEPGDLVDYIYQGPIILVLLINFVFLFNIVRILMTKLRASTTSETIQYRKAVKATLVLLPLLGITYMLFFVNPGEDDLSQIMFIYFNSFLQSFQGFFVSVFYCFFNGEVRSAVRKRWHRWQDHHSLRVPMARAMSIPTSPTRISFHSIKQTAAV
Summary of the method: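 Agonist peptides are added to suspended, freshly thawed CHO-K1 cells that stably carry the human receptor. Intracellular cAMP competes with d2-cAMP for a cryptate-tagged antibody, lowering the FRET signal. A variable-slope sigmoid curve is fitted to obtain EC50.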

[5] = Thioflavin T fibril formation assay of purified peptides; type: physicochemical; set-up: key: Amyloid fibril formation detected by an increase in ThT fluorescence was denoted with "Yes"; samples without increasing ThT fluorescence hence not forming amyloid fibrils were denoted "No"
Summary of the method: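 Compounds at 200 µM in 50 mM phosphate buffer at the stated pH values, or at 200 µM in semaglutide drug product adjusted to pH 7.4, with 4 µM ThT final. Fibrillation followed as ThT fluorescence (ex 450/em 480 nm) over 96 h at 40°C, with 5 min shaking at 700 rpm alternating with 5 min rest; triplicates.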

Row | SMILES | MRT [1] | T½ [1] | Solubility pH 7.5, target conc. =10 mg/mL (measured mg/mL) [2] | % FI compared to vehicle, 24 h post-dosing ([3]; 30 nmol/kg) | % FI compared to vehicle, 24 h post-dosing ([3]; 100 nmol/kg) | % FI compared to vehicle, 24 h post-dosing ([3]; 300 nmol/kg) | Selectivity ratio (hCRHR1/ hCRHR2) ([4]; hCRHR1-EC50/hCRHR2-EC50) | EC50 ([4]; purified peptides, CHO-K1 cells stably expressing hCRHR2, cAMP HTRF, read-out: hCRHR2 EC50) | Fibrillation (pH 7.5) ([5]; pH 7.5, ThT assay) | EC50 ([4]; Table 4, library peptides having X^38 = Nle, read-out: hCRHR2 pEC50 (converted)) | Selectivity ratio (hCRHR1/ hCRHR2) ([4]; Table 5) | EC50 ([4]; Table 5, purified peptides, read-out: hCRHR2 EC50) | Fibrillation (pH 7.5) ([5]; pH 7.5)
1 | CC[C@H](C)[C@H](N)C(=O)N[C@H](C(=O)N[C@@H](CC(C)C)C(=O)N[C@@H](CO)C(=O)N[C@@H](CC(C)C)C(=O)N[C@@H](CC(=O)O)C(=O)N[C@H](C(=O)N1CCC[C@H]1C(=O)N[C@H](C(=O)NCC(=O)N[C@@H](CC(C)C)C(=O)N[C@@H](CC(C)C)C(=O)N[C@@H](CCC(N)=O)C(=O)N[C@H](C(=O)N[C@@H](CC(C)C)C(=O)N[C@@H](CC(C)C)C(=O)N[C@@H](CCC(=O)O)C(=O)N[C@@H](CCC(N)=O)C(=O)N[C@@H](C)C(=O)N[C@@H](CCCNC(=N)N)C(=O)N[C@@H](C)C(=O)N[C@@H](CCCNC(=N)N)C(=O)N[C@@H](C)C(=O)N[C@@H](C)C(=O)N[C@@H](CCCNC(=N)N)C(=O)N[C@@H](CCC(=O)O)C(=O)N[C@@H](CCC(N)=O)C(=O)N[C@@H](C)C(=O)N[C@H](C(=O)N[C@@H](CCCCNC(=O)COCCOCCNC(=O)COCCOCCNC(=O)CC[C@H](NC(=O)CC[C@H](NC(=O)CCCCCCCCCCCCCCCCCCC(=O)O)C(=O)O)C(=O)O)C(=O)N[C@@H](CC(N)=O)C(=O)N[C@@H](C)C(=O)N[C@@H](CCC(=O)O)C(=O)N[C@H](C(=O)N[C@@H](CC(C)C)C(=O)N[C@@H](C)C(=O)N[C@@H](CCC(=O)O)C(=O)N[C@H](C(N)=O)C(C)C)[C@@H](C)CC)[C@@H](C)O)[C@@H](C)CC)[C@@H](C)CC)C(C)C)C(C)C [SEQ ID NO: 4] (H-IVLSLDVPIGLLQILLEQARARAAREQATK([AEEA-AEEA-γGlu-γGlu-C20 diacid])NAEILAEV-NH2) | 6.4 | 5.3 | 9.1 mg/mL | 63.41*** % | 19.33*** % | 18.14*** % | >3846 | 1.3 nM | No |  |  |  | 
2 | CCCC[C@H](NC(=O)[C@@H](NC(=O)[C@H](CCC(=O)O)NC(=O)[C@H](C)NC(=O)[C@H](CC(N)=O)NC(=O)C(C)(C)NC(=O)[C@H](CCCCNC(=O)COCCOCCNC(=O)COCCOCCNC(=O)CC[C@H](NC(=O)CC[C@H](NC(=O)CCCCCCCCCCCCCCCCCCC(=O)O)C(=O)O)C(=O)O)NC(=O)[C@H](C)NC(=O)[C@H](CCC(N)=O)NC(=O)[C@H](CCC(=O)O)NC(=O)[C@H](CCCNC(=N)N)NC(=O)[C@H](C)NC(=O)[C@H](C)NC(=O)[C@H](CCCNC(=N)N)NC(=O)[C@H](C)NC(=O)[C@H](CCCNC(=N)N)NC(=O)[C@H](C)NC(=O)[C@H](CCC(N)=O)NC(=O)[C@H](CO)NC(=O)[C@H](CC(C)C)NC(=O)[C@H](CC(C)C)NC(=O)[C@@H](NC(=O)[C@H](CCC(N)=O)NC(=O)[C@H](CC(C)C)NC(=O)[C@H](CC(C)C)NC(=O)CNC(=O)[C@@H](NC(=O)[C@@H]1CCCN1C(=O)[C@@H](NC(=O)[C@H](CC(=O)O)NC(=O)[C@H](CC(C)C)NC(=O)[C@H](CO)NC(=O)[C@H](CC(C)C)NC(=O)[C@@H](NC(=O)[C@@H](NC)[C@@H](C)CC)C(C)C)C(C)C)[C@@H](C)CC)[C@@H](C)CC)[C@@H](C)CC)C(=O)N[C@@H](C)C(=O)N[C@@H](CCC(=O)O)C(=O)N[C@H](C(N)=O)C(C)C [compound 132] (H-[NMeI]VLSLDVPIGLLQILLSQARARAAREQAK([AEEA-AEEA-γGlu-γGlu-C20 diacid])[Aib]NAEI[Nle]AEV-NH2) | 6.2 | 4.8 | 11 mg/mL | 46.64*** % | 18.5*** % | 20.04*** % |  |  |  | 0.02 nM | >6494 | 0.77 nM | No

— patent EP4810052A2, “HCRHR2 SELECTIVE POLYPEPTIDES” (Gubra A/S, priority 2023, dated 2026)
